Reference: patent US20260226064A1, “POLYCYCLIC COMPOUND FOR TREATING NEUROLOGICAL DISEASES AND TUMORS” (Shanghai Institute of Organic Chemistry, Chinese Academy of …, priority 2023, published 2026)

System: acetylated microtubule in HEK293T cells
Test: Microtubule-Stabilizing Activity Assay (acetylated microtubule immunoblot, HEK293T, colchicine challenge)
Assay type: cell-based
Conditions: 1 h pre-incubation, then colchicine 1 μM 3 h, relative to CNDR-51657 at 500 nM = 1.00; for Microtubule-Stabilizing Activity 50 nM: compound 50 nM; for Microtubule-Stabilizing Activity 500 nM: compound 500 nM
Protocol: Compound solvent: 100% dimethyl sulfoxide (DMSO). Cell line: HEK293T (ATCC, CRL3216). Culture conditions: Cells were cultured in Dulbecco's Modified Eagle's Medium (DMEM) containing 10% fetal bovine serum and 1% penicillin/streptomycin. Cells were cultured at 37° C. in a Thermo-Fisher incubator with a humidified atmosphere of 5% carbon dioxide.
One day prior to the experiment, 100,000 cells were seeded at a density of 200,000 cells/ml in a 24-well plate.
On the day of the experiment, 20 μl of PBS phosphate buffer containing the test compound at experimental concentrations or an equivalent volume of DMSO was added to each well. After incubating at 37° C. for 1 hour, colchicine was added to each well at a final concentration of 1 μM, followed by an additional 3-hour incubation at 37° C. The plate was then placed on ice. The medium in each well was removed, and the cells were washed with ice-cold PBS. After aspirating the PBS, 0.1 mL of ice-cold RIPA lysis buffer (containing 0.5% sodium deoxycholate, 0.1% SDS, 1% NP-40, 5 mM EDTA, pH 8.0) was quickly added. Prior to use, a commercial protease inhibitor cocktail (1:500) and 1 μM deacetylase inhibitor Trichostatin A (Sangon Biotech Co., Ltd.) were added to the cell lysis buffer. The cell lysate were transferred to a 1.5 ml centrifuge tube, sonicated, and centrifuged at 13,000 rpm for 10 minutes. The supernatant was collected, and protein concentration was determined using the BCA assay.
Based on existing literature (Black, 1989; Kurt, 2011), acetylated microtubule was used as an indicator of microtubule polymerization to assess the microtubule-stabilizing efficacy of the compounds. HEK293T cell lysates were analyzed by SDS-PAGE (7.5% gel) and immunoblotted using acetylated microtubule antibody (1:20,000, Sigma-Aldrich, T7451) and α-microtubule antibody (1:2,000, Proteintech, 11224-1-AP). After incubation with fluorescent dye-conjugated IgG (1:40,000, Licor), the blots were visualized using an Odyssey-Dlx imaging system. Grayscale analysis was performed using ImageJ.
The compound activity was quantified with the microtubule-stabilizing activity of CNDR-51657 (C5) (Jane, 2016) at 500 nM as 1.00.

| Compound | Microtubule-Stabilizing Activity 50 nM | Microtubule-Stabilizing Activity 500 nM |
| --- | --- | --- |
| CC(C)[C@@H](C)Nc1c(-c2c(F)cc(O[C@H]3C[C@@H]4CN(C)C[C@@H]4C3)cc2F)c(Cl)nc2ncnn12 [Example 41, 5-Chloro-6-(2,6-difluoro-4-(((3aR,5s,6aS)-2-methyloctahydrocyclopenta[c]pyrrol-5-yl)oxy)phenyl)-N—((R)-3-methylbutan-2-yl)-[1,2,4]triazolo[1,5-a]pyrimidin-7-amine] | 0.11 | 1.93 |
| Fc1cc(OC[C@H]2[C@@H]3CNC[C@@H]32)cc(F)c1-c1c(Cl)nc2ncnn2c1NCC(F)(F)F [Example 33, 6-(4-(((1R,5S,6r)-3-azabicyclo[3.1.0]hexan-6-yl)methoxy)-2,6-difluorophenyl)-5-chloro-N-(2,2,2-trifluoroethyl)-[1,2,4]triazolo[1,5-a]pyrimidin-7-amine] | 1.46 | 1.64 |
| C[C@@H](Nc1c(-c2c(F)cc(/C=C/[C@@H]3[C@H]4CN(C)C[C@@H]34)cc2F)c(Cl)nc2ncnn12)C1CCC1 [Example 56, 5-Chloro-N—((R)-1-cyclobutylethyl)-6-(2,6-difluoro-4-((E)-2-((1R,5S,6s)-3-methyl-3-azabicyclo[3.1.0]hexan-6-yl)vinyl)phenyl)-[1,2,4]triazolo[1,5-a]pyrimidin-7-amine] | 1.47 | 1.69 |
| CC(C)[C@@H](C)Nc1c(-c2c(F)cc(O[C@@H]3C[C@@H]4CN(C)C[C@@H]4C3)cc2F)c(Cl)nc2ncnn12 [Example 37, 5-Chloro-6-(2,6-difluoro-4-(((3aR,5r,6aS)-2-methyloctahydrocyclopenta[c]pyrrol-5-yl)oxy)phenyl)-N—((R)-3-methylbutan-2-yl)-[1,2,4]triazolo[1,5-a]pyrimidin-7-amine] | 0.16 | 0.17 |
| CC(C)[C@@H](C)Nc1c(-c2c(F)cc(OCC3[C@H]4CN(C)C[C@@H]34)cc2F)c(Cl)nc2ncnn12 (stereo partly drawn) [Example 22, 5-Chloro-6-(2,6-difluoro-4-(((1R,5S,6r)-3-methyl-3-azabicyclo[3.1.0]hex-6-yl)methoxy)phenyl)-N—((R)-3-methylbutan-2-yl)-[1,2,4]triazolo[1,5-a]pyrimidin-7-amine] | 1.88 | 1.61 |
| Cl.Fc1cc(C#C[C@@H]2[C@H]3CNC[C@@H]23)cc(F)c1-c1c(Cl)nc2ncnn2c1NCC(F)(F)F [Example 49, 6-(4-(((1R,5S,6s)-3-Azabicyclo[3.1.0]hexan-6-yl)ethynyl)-2,6-difluorophenyl)-5-chloro-N-(2,2,2-trifluoroethyl)-[1,2,4]triazolo[1,5-a]pyrimidin-7-amine hydrochloride] | 1.04 | 1.74 |
| 6-(4-(((1R,5S,6r)-3-Azabicyclo[3.1.0]hexan-6-yl)methoxy)-2,6-difluorophenyl)-5-methyl-N-(2,2,2-trifluoroethyl)-[1,2,4]triazolo[1,5-a]pyrimidin-7-amine [Example 35] | 0.87 | 1.80 |
| CC(C)[C@@H](C)Nc1c(-c2c(F)cc(OC[C@@H]3[C@@H]4CNC[C@@H]43)cc2F)c(Cl)nc2ncnn12 [Example 29, 6-(4-(((1R,5S,6s)-3-Azabicyclo[3.1.0]hexan-6-yl)methoxy)-2,6-difluorophenyl)-5-chloro-N—((R)-3-methylbutan-2-yl)-[1,2,4]triazolo[1,5-a]pyrimidin-7-amine] | 0.32 | 1.69 |
| C[C@H](Nc1c(-c2c(F)cc(OC3CC4(CCC(N(C)C)CC4)C3)cc2F)c(Cl)nc2ncnn12)C(F)(F)F (stereo partly drawn) [Example 20, (S)-5-Chloro-6-(2,6-difluoro-4-((7-(dimethylamino)spiro[3.5]nonan-2-yl)oxy)phenyl)-N-(1,1,1-trifluoropropan-2-yl)-[1,2,4]triazolo[1,5-a]pyrimidin-7-amine] | 0.05 | 1.32 |
| CC(C)[C@@H](C)Nc1c(-c2c(F)cc(C#C[C@@H]3[C@H]4CNC[C@@H]34)cc2F)c(Cl)nc2ncnn12.Cl [Example 44, 6-(4-(((1R,5S,6s)-3-Azabicyclo[3.1.0]hexan-6-yl)ethynyl)-2,6-difluorophenyl)-5-chloro-N—((R)-3-methylbutan-2-yl)-[1,2,4]triazolo[1,5-a]pyrimidin-7-amine hydrochloride] |  | 1.6 |
| CC(C)[C@@H](C)Nc1c(-c2c(F)cc(O[C@@H]3C[C@H]4CNC[C@H]4C3)cc2F)c(Cl)nc2ncnn12 [Example 40] | 0.17 | 0.69 |
| C[C@H](Nc1c(-c2c(F)cc(O[C@H]3C[C@@H]4CN(C)C[C@@H]4C3)cc2F)c(Cl)nc2ncnn12)C(F)(F)F [Example 43, 5-Chloro-6-(2,6-difluoro-4-(((3aR,5s,6aS)-2-methyloctahydrocyclopenta[c]pyrrol-5-yl)oxy)phenyl)-N—((S)-1,1,1-trifluoropropan-2-yl)-[1,2,4]triazolo[1,5-a]pyrimidin-7-amine] | 0.09 | 2.69 |
| C[C@@H](Nc1c(-c2c(F)cc(/C=C/[C@@H]3[C@H]4CNC[C@@H]34)cc2F)c(Cl)nc2ncnn12)C1CCC1.Cl [Example 52, 6-(4-((E)-2-((1R,5S,6s)-3-Azabicyclo[3.1.0]hexan-6-yl)vinyl)-2,6-difluorophenyl)-5-chloro-N—((R)-1-cyclobutylethyl)-[1,2,4]triazolo[1,5-a]pyrimidin-7-amine hydrochloride] | 1.41 | 1.69 |
| C[C@H](Nc1c(-c2c(F)cc(OC[C@H]3[C@H]4CN(C)C[C@@H]34)cc2F)c(Cl)nc2ncnn12)C(F)(F)F [Example 32, 5-Chloro-6-(2,6-difluoro-4-(((1R,5S,6s)-3-methyl-3-azabicyclo[3.1.0]hexan-6-yl)methoxy)phenyl)-N—((S)-1,1,1-trifluoropropan-2-yl)-[1,2,4]triazolo[1,5-a]pyrimidin-7-amine] | 0.07 | 2.51 |
| CC(C)[C@@H](C)Nc1c(-c2c(F)cc(OC3CC4(CCN(C)CC4)C3)cc2F)c(Cl)nc2ncnn12 [Example 6, (R)-6-(4-((7-Methyl-7-azaspiro[3.5]nonan-2-yl)oxy)-2,6-difluorophenyl)-5-chloro-N-(3-methylbutan-2-yl)-[1,2,4]triazolo[1,5-a]pyrimidin-7-amine] | 0.25 | 0.38 |
| CC(C)[C@@H](C)Nc1c(-c2c(F)cc(/C=C/[C@@H]3[C@H]4CN(C)C[C@@H]34)cc2F)c(Cl)nc2ncnn12 [Example 59] | 0.61 | 1.87 |
| C[C@@H](Nc1c(-c2c(F)cc(C#C[C@@H]3[C@H]4CNC[C@@H]34)cc2F)c(Cl)nc2ncnn12)C1CCC1.Cl [Example 45, 6-(4-(((1R,5S,6s)-3-Azabicyclo[3.1.0]hex-6-yl)ethynyl)-2,6-difluorophenyl)-5-chloro-N—((R)-1-cyclobutylethyl)-[1,2,4]triazolo[1,5-a]pyrimidin-7-amine hydrochloride] | 1.1 | 1.3 |
